Experimental data reported in patent US10160747B2, “Compounds and methods for kinase modulation, and indications therefor” (Plexxikon Inc., priority 2016, dated 2018).

What was measured:
c-KIT = molecular target: T1, c-KIT (Homo sapiens, UniProt P10721); assay: c-KIT recombinant enzyme kinase assay (AlphaScreen); type: biochemical; conditions: 100 ATP, 8 pt
T1 construct: purchased Millipore 14-559K
Procedure, shortened: (§1)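 Kinase activity of recombinant FLT3-ITD, FLT3-D835Y and c-KIT was followed via phosphotyrosine formation on a 30 nM biotin-peptide substrate, captured on streptavidin donor and anti-phosphotyrosine acceptor AlphaScreen beads. ATP was set at 10 μM for FLT3 and 100 μM for c-KIT.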

FLT3-D835Y = molecular target: T2, FLT3-D835Y (Homo sapiens, UniProt P36888, D835Y); assay: FLT3-D835Y recombinant enzyme kinase assay (AlphaScreen); type: biochemical; conditions: 8 pt, GMean
T2 construct: purchased Invitrogen PV3967
T2 sequence (P36888 27-993 D835Y): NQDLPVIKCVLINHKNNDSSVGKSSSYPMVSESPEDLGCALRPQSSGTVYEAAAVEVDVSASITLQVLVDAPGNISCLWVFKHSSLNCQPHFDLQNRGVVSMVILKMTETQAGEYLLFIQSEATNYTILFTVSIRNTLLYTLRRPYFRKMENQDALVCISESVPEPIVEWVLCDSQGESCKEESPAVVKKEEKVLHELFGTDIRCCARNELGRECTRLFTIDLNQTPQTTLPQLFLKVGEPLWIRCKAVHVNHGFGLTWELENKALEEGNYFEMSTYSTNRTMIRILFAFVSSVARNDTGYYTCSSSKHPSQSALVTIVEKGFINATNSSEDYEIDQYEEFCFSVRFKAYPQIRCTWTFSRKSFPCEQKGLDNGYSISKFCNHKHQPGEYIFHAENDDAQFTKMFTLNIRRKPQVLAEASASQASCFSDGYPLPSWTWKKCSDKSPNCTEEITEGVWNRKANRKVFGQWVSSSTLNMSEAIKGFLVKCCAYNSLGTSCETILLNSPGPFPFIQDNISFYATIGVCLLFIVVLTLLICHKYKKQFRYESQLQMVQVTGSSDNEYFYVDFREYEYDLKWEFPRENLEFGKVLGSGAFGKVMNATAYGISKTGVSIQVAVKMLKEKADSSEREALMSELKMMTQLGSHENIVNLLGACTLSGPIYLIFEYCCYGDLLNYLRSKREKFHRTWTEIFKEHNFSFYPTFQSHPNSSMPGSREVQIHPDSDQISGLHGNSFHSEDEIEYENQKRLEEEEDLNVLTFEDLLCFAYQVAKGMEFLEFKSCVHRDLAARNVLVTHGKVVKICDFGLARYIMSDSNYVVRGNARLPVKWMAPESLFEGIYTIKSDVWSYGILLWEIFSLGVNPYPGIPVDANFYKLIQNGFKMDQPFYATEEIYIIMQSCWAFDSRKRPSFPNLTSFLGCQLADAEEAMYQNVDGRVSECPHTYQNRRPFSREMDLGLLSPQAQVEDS
Procedure, shortened: as §1

T1 sequence (P10721 26-976): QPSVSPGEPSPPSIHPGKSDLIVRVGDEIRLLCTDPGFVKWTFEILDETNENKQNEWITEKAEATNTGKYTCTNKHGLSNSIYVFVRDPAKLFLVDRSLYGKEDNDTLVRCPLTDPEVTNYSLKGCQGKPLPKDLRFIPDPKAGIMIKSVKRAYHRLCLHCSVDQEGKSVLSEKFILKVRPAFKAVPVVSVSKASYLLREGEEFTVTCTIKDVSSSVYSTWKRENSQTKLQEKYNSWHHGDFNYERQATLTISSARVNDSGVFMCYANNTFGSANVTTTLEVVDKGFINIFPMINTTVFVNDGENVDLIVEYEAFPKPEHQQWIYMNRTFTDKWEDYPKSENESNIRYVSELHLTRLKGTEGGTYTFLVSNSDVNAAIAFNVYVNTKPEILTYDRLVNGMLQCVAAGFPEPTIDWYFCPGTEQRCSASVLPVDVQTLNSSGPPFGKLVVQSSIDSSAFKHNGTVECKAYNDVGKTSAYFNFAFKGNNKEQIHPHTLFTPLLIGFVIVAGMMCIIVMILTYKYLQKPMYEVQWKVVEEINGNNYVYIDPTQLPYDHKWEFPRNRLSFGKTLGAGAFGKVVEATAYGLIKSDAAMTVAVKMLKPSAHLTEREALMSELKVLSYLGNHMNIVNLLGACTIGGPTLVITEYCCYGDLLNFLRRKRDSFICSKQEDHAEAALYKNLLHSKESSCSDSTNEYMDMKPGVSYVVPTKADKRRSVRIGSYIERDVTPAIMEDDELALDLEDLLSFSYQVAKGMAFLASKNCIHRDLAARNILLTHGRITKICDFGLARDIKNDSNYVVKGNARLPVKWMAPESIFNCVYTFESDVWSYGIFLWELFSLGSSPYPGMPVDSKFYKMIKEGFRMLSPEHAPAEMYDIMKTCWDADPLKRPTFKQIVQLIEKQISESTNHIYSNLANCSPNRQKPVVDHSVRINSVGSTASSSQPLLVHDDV

Row | Compound | IC50 (c-KIT) [µM] | IC50 (FLT3-D835Y) [µM]
1 | Cn1cnc(Nc2ncc(-c3ccc(CC(=O)Nc4cc(C(F)(F)F)ccn4)cc3F)cn2)c1 [Compound P-0018, 2-[3-fluoro-4-[2-[(1-methylimidazol-4-yl)amino]pyrimidin-5-yl]phenyl]-N-[4-(trifluoromethyl)-2-pyridyl]acetamide] | 0.0001 to 10 | 0.0001 to 10
2 | O=C(Cc1ccc(-c2cnc(Nc3cnn(C(F)F)c3)nc2)cc1)Nc1cncc(C(F)(F)F)c1 [Compound P-0209, 2-[4-[2-[[1-(difluoromethyl)pyrazol-4-yl]amino]pyrimidin-5-yl]phenyl]-N-[5-(trifluoromethyl)-3-pyridyl]acetamide] | 0.0001 to 10 | 0.0001 to 10
3 | Cn1cc(Nc2ncc(-c3ccc(CC(=O)Nc4cc(C(F)(F)F)ccn4)cc3F)cn2)cn1 [Compound P-0017, 2-[3-fluoro-4-[2-[(1-methylpyrazol-4-yl)amino]pyrimidin-5-yl]phenyl]-N-[4-(trifluoromethyl)-2-pyridyl]acetamide] | 0.0001 to 10 | 0.0001 to 10
4 | COc1ncc(NC(=O)Cc2ccc(-c3cnc4[nH]c(-c5ccc(C#N)nc5)cc4c3)c(F)c2)cc1C(F)(F)F [Compound P-0014, 2-[4-[2-(6-cyano-3-pyridyl)-1H-pyrrolo[2,3-b]pyridin-5-yl]-3-fluoro-phenyl]-N-[6-methoxy-5-(trifluoromethyl)-3-pyridyl]acetamide] | – | 0.0001 to 10
5 | O=C(Cc1cc(F)c(-c2cnc(Nc3cnn(C(F)F)c3)nc2)cc1F)Nc1cc(C(F)(F)F)ccn1 [Compound P-0021, 2-[4-[2-[[1-(difluoromethyl)pyrazol-4-yl]amino]pyrimidin-5-yl]-2,5-difluoro-phenyl]-N-[4-(trifluoromethyl)-2-pyridyl]acetamide] | 0.0001 to 10 | 0.0001 to 10
6 | O=C(Cc1ccc(-c2cnc(Nc3cnn(C(F)F)c3)nc2)cc1)Nc1cc(C(F)(F)F)ccn1 [Compound P-0023, 2-[4-[2-[[1-(difluoromethyl)pyrazol-4-yl]amino]pyrimidin-5-yl]phenyl]-N-[4-(trifluoromethyl)-2-pyridyl]acetamide] | 0.0001 to 10 | 0.0001 to 10
7 | COc1ncc(NC(=O)Cc2ccc(-c3cnc4[nH]c(-c5ccnc(C#N)c5)cc4c3)c(F)c2)cc1C(F)(F)F [Compound P-0016, 2-[4-[2-(2-cyano-4-pyridyl)-1H-pyrrolo[2,3-b]pyridin-5-yl]-3-fluoro-phenyl]-N-[6-methoxy-5-(trifluoromethyl)-3-pyridyl]acetamide] | – | 0.0001 to 10
8 | COc1ncc(NC(=O)Cc2ccc(-c3cnc4[nH]c(-c5cnn(C(F)F)c5)cc4c3)cc2F)cc1C(F)(F)F [Compound P-0015, 2-[4-[2-[1-(difluoromethyl)pyrazol-4-yl]-1H-pyrrolo[2,3-b]pyridin-5-yl]-2-fluoro-phenyl]-N-[6-methoxy-5-(trifluoromethyl)-3-pyridyl]acetamide] | – | 0.0001 to 10
9 | COc1ncc(NC(=O)Cc2ccc(-c3cnc(Nc4cnn(C)c4)nc3)c(F)c2)cc1C(F)(F)F [Compound P-0206, 2-[3-fluoro-4-[2-[(1-methylpyrazol-4-yl)amino]pyrimidin-5-yl]phenyl]-N-[6-methoxy-5-(trifluoromethyl)-3-pyridyl]acetamide] | – | 0.0001 to 10
10 | COc1ncc(NC(=O)Cc2ccc(-c3cnc4[nH]c(C#Cc5cncn5C)cc4c3)cc2)cc1C(F)(F)F [Compound P-0227, N-[6-methoxy-5-(trifluoromethyl)-3-pyridyl]-2-[4-[2-[2-(3-methylimidazol-4-yl)ethynyl]-1H-pyrrolo[2,3-b]pyridin-5-yl]phenyl]acetamide] | – | 0.0001 to 10
11 | COc1ncc(NC(=O)Cc2ccc(-c3cnc4[nH]c(-c5ccc(C#N)nc5)cc4c3)cc2F)cc1C(F)(F)F [Compound P-0011, 2-[4-[2-(6-cyano-3-pyridyl)-1H-pyrrolo[2,3-b]pyridin-5-yl]-2-fluoro-phenyl]-N-[6-methoxy-5-(trifluoromethyl)-3-pyridyl]acetamide] | – | 0.0001 to 10

Now from value to molecule:

Row | IC50 (c-KIT) [µM] | IC50 (FLT3-D835Y) [µM] | Compound
12 | 0.0001 to 10 | 0.0001 to 10 | COCCn1cc(Nc2ncc(-c3ccc(CC(=O)Nc4cnc(Cl)c(C(F)(F)F)c4)c(F)c3)cn2)cn1 [Compound P-0266, N-[6-chloro-5-(trifluoromethyl)-3-pyridyl]-2-[2-fluoro-4-[2-[[1-(2-methoxyethyl)pyrazol-4-yl]amino]pyrimidin-5-yl]phenyl]acetamide]
13 | 0.0001 to 10 | 0.0001 to 10 | CCn1cc(Nc2ncc(-c3ccc(CC(=O)Nc4cnc(Cl)c(C(F)(F)F)c4)c(F)c3)cn2)cn1 [Compound P-0260, N-[6-chloro-5-(trifluoromethyl)-3-pyridyl]-2-[4-[2-[(1-ethylpyrazol-4-yl)amino]pyrimidin-5-yl]-2-fluoro-phenyl]acetamide]
14 | 0.0001 to 10 | 0.0001 to 10 | O=C(Cc1ccc(-c2cnc(Nc3cnn(C4CC4)c3)nc2)cc1F)Nc1ccc(C(F)(F)F)cn1 [Compound P-0243, 2-[4-[2-[(1-cyclopropylpyrazol-4-yl)amino]pyrimidin-5-yl]-2-fluoro-phenyl]-N-[5-(trifluoromethyl)-2-pyridyl]acetamide]
15 | 0.0001 to 10 | 0.0001 to 10 | COCCn1cc(Nc2ncc(-c3ccc(CC(=O)Nc4ccc(C(F)(F)F)nc4)cc3)cn2)cn1 [Compound P-0273, 2-[4-[2-[[1-(2-methoxyethyl)pyrazol-4-yl]amino]pyrimidin-5-yl]phenyl]-N-[6-(trifluoromethyl)-3-pyridyl]acetamide]
16 | 0.0001 to 10 | 0.0001 to 10 | O=C(Cc1ccc(-c2cnc(Nc3cnn(C4CC4)c3)nc2)cc1F)Nc1cnc(Cl)c(C(F)(F)F)c1 [Compound P-0240, N-[6-chloro-5-(trifluoromethyl)-3-pyridyl]-2-[4-[2-[(1-cyclopropylpyrazol-4-yl)amino]pyrimidin-5-yl]-2-fluoro-phenyl]acetamide]
17 | 0.0001 to 10 | 0.0001 to 10 | CCn1cc(Nc2ncc(-c3ccc(CC(=O)Nc4ccc(C(F)(F)F)cn4)c(F)c3)cn2)cn1 [Compound P-0256, 2-[4-[2-[(1-ethylpyrazol-4-yl)amino]pyrimidin-5-yl]-2-fluoro-phenyl]-N-[5-(trifluoromethyl)-2-pyridyl]acetamide]
18 | 0.0001 to 10 | 0.0001 to 10 | CCn1cc(Nc2ncc(-c3ccc(CC(=O)Nc4cnc(OC)c(C(F)(F)F)c4)cc3F)cn2)cn1 [Compound P-0246, 2-[4-[2-[(1-ethylpyrazol-4-yl)amino]pyrimidin-5-yl]-3-fluoro-phenyl]-N-[6-methoxy-5-(trifluoromethyl)-3-pyridyl]acetamide]
19 | 0.0001 to 10 | 0.0001 to 10 | COCCn1cc(Nc2ncc(-c3ccc(CC(=O)Nc4cc(C(F)(F)F)ccn4)c(F)c3)cn2)cn1 [Compound P-0270, 2-[2-fluoro-4-[2-[[1-(2-methoxyethyl)pyrazol-4-yl]amino]pyrimidin-5-yl]phenyl]-N-[4-(trifluoromethyl)-2-pyridyl]acetamide]
20 | 0.0001 to 10 | 0.0001 to 10 | Cc1nn(C)cc1Nc1ncc(-c2ccc(CC(=O)Nc3cnc(C)c(C(F)(F)F)c3)cc2)cn1 [Compound P-0228, 2-[4-[2-[(1,3-dimethylpyrazol-4-yl)amino]pyrimidin-5-yl]phenyl]-N-[6-methyl-5-(trifluoromethyl)-3-pyridyl]acetamide]
21 | 0.0001 to 10 | 0.0001 to 10 | COc1ncc(NC(=O)Cc2ccc(-c3cnc4[nH]nc(C5CC5)c4c3)cc2F)cc1C(F)(F)F [Compound P-0262, 2-[4-(3-cyclopropyl-1H-pyrazolo[3,4-b]pyridin-5-yl)-2-fluoro-phenyl]-N-[6-methoxy-5-(trifluoromethyl)-3-pyridyl]acetamide]
22 | 0.0001 to 10 | 0.0001 to 10 | COCCn1cc(Nc2ncc(-c3ccc(CC(=O)Nc4ccc(C(F)(F)F)cn4)c(F)c3)cn2)cn1 [Compound P-0269, 2-[2-fluoro-4-[2-[[1-(2-methoxyethyl)pyrazol-4-yl]amino]pyrimidin-5-yl]phenyl]-N-[5-(trifluoromethyl)-2-pyridyl]acetamide]
23 | 0.0001 to 10 | 0.0001 to 10 | CCn1cc(Nc2ncc(-c3ccc(CC(=O)Nc4ccc(C(F)(F)F)nc4)c(F)c3)cn2)cn1 [Compound P-0257, 2-[4-[2-[(1-ethylpyrazol-4-yl)amino]pyrimidin-5-yl]-2-fluoro-phenyl]-N-[6-(trifluoromethyl)-3-pyridyl]acetamide]
24 | 0.0001 to 10 | 0.0001 to 10 | COCCn1cc(Nc2ncc(-c3ccc(CC(=O)Nc4ccc(C(F)(F)F)cn4)cc3)cn2)cn1 [Compound P-0274, 2-[4-[2-[[1-(2-methoxyethyl)pyrazol-4-yl]amino]pyrimidin-5-yl]phenyl]-N-[5-(trifluoromethyl)-2-pyridyl]acetamide]
